Assay [1] concerns 9 L gliosarcoma. Briefly: In vivo antitumor activity of tetrazolium salts in polylactic acid polymer, established flank tumor in rats (Example 3). Conditions: 2.5 mg/kg in polylactic acid polymer implanted in 14 day established tumor, tumor volume on day 60, n=6.
Assay [2] concerns SDH. Briefly: Inhibition of crystal formation on cellular structures by prior incubation with SDH inhibitor. It counts as cell-based. Particulars: prior incubation of cells with the SDH inhibitor, crystals of Examples 4 through 7. The source says: The crystallization of organelles, such as centrosome, mitochondrion, or nuclear envelopes (or endoplasmic retulum), effectively stopped cell proliferation and induced cell death as well. This kind of cell death, which is different form either necrosis or appoptosis, is called cellular-organelle-crystallizatin-induced-death, […]. COCID also refers to the cell death, induced by the crystallization of cytoskeletons as well as the crystallization of the sub-units of cellular organelles and cytoskeletons. COCID further refers to the cell death, induced by the crystallization of proteins and small molecules located on cytoskeletons or the sub-units of cellular organelles and ccytoskeletons.
[…]

Turning to `c1ccc(-c2nn(-c3ccccc3)[n+](-c3ccccc3)n2)cc1` [TR, 2,3,5-triphenyltetrazolium chloride], the Tumor size in assay [1] stood at 44 ± 5.3 cm^3.
On to `O=C(O)CC[N+](=O)[O-]` [nitropropionic acid], for which the “inhibition of the crystals on the cellular structures” value in assay [2] was “could be inhibited”.
Consider `c1ccc(-c2nn(-c3ccccc3)[n+](-c3cccc4ccccc34)n2)cc1` [TV, 2,5-diphenyl-3-[1-naphthyl]-2H-tetrazolium chloride], for which, in assay [1], the Tumor size is 21 ± 2.3 cm^3.

Values taken from patent US6864272B2, “Method and composition for treating cancer using cellular organelle crystallizing agents” (priority 2000, dated 2005).
